Data reported in ChEMBL document CHEMBL5303304, “EUbOPEN Chemogenomics Library - IncuCyte” (2023).

Assays:
Assay type in all cases: toxicity, cell-based
[1] = system: Fibroblast; experiment: Incucyte cell viability with human fibroblast; settings: 10 µM, compound concentration 10 uM
[2] = system: U2OS; experiment: Incucyte cell viability with U2OS; settings: human, 10 µM, compound concentration 10 uM
[3] = system: HEK-293T; experiment: Incucyte cell viability with HEK293T; settings: human, 10 µM, compound concentration 10 uM
Also: unitless GR value; below 1 slowed growth and below 0 cell loss.

Compound: Cc1cccc(-c2nn(C(=S)Nc3ccccc3)cc2-c2ccnc3ccccc23)n1
- Growth Rate ([1]; 0 h, replicate number 2): -1
- Growth Rate ([1]; 6 h, replicate number 1): 1
- Growth Rate ([1]; 12 h, replicate number 1): -1
- Growth Rate ([2]; 0 h, replicate number 2): -0.94
- Growth Rate ([2]; 6 h, replicate number 1): 0.88
- Growth Rate ([2]; 6 h, replicate number 2): 0.81
- Growth Rate ([2]; 18 h, replicate number 2): 0.98
- Growth Rate ([2]; 24 h, replicate number 2): 0.88
- Growth Rate ([3]; 0 h, replicate number 1): 0.78

Compound: CC(C)(O)C(=O)N1CCN(c2ccc(C(F)(F)F)c(C3=C(c4c[nH]c5ccccc45)C(=O)NC3=O)c2)CC1
- Growth Rate ([1]; 0 h, replicate number 2): -1
- Growth Rate ([1]; 6 h, replicate number 1): -0.74
- Growth Rate ([1]; 12 h, replicate number 1): -1
- Growth Rate ([1]; 18 h, replicate number 2): 0.73
- Growth Rate ([1]; 24 h, replicate number 2): 0.3
- Growth Rate ([2]; 0 h, replicate number 1): -0.61
- Growth Rate ([2]; 12 h, replicate number 1): 0.93
- Growth Rate ([2]; 18 h, replicate number 1): 0.9
- Growth Rate ([2]; 18 h, replicate number 2): 0.8
- Growth Rate ([2]; 24 h, replicate number 1): 0.76
- Growth Rate ([2]; 24 h, replicate number 2): 0.83
- Growth Rate ([3]; 0 h, replicate number 1): 0.94
- Growth Rate ([3]; 6 h, replicate number 1): 0.81
- Growth Rate ([3]; 6 h, replicate number 2): 0.29
- Growth Rate ([3]; 12 h, replicate number 2): 0.57
- Growth Rate ([3]; 18 h, replicate number 1): 0.83
- Growth Rate ([3]; 18 h, replicate number 2): 0.49
- Growth Rate ([3]; 24 h, replicate number 1): 0.61
- Growth Rate ([3]; 24 h, replicate number 2): 0.42

Compound: CCn1c(-c2nonc2N)nc2c(C#CC(C)(C)O)ncc(OCC3CCCNC3)c21 (configuration not stated)
- Growth Rate ([1]; 0 h, replicate number 1): -0.85
- Growth Rate ([1]; 6 h, replicate number 2): -0.99
- Growth Rate ([1]; 12 h, replicate number 2): 0.5
- Growth Rate ([1]; 18 h, replicate number 1): -0.63
- Growth Rate ([1]; 18 h, replicate number 2): 0.47
- Growth Rate ([1]; 24 h, replicate number 1): 0.21
- Growth Rate ([1]; 24 h, replicate number 2): 0.58
- Growth Rate ([2]; 6 h, replicate number 2): 0.47
- Growth Rate ([2]; 12 h, replicate number 2): 0.86
- Growth Rate ([2]; 18 h, replicate number 2): 0.84
- Growth Rate ([2]; 24 h, replicate number 1): 0.96
- Growth Rate ([2]; 24 h, replicate number 2): 0.9
- Growth Rate ([3]; 0 h, replicate number 1): 0.09
- Growth Rate ([3]; 0 h, replicate number 2): 0.47
- Growth Rate ([3]; 6 h, replicate number 1): -0.57
- Growth Rate ([3]; 6 h, replicate number 2): -0.49
- Growth Rate ([3]; 12 h, replicate number 1): -0.65
- Growth Rate ([3]; 12 h, replicate number 2): -0.05
- Growth Rate ([3]; 18 h, replicate number 1): -0.26
- Growth Rate ([3]; 18 h, replicate number 2): 0.15
- Growth Rate ([3]; 24 h, replicate number 1): -0.03
- Growth Rate ([3]; 24 h, replicate number 2): 0.13

Compound: COc1cc(N2CCN(C)CC2)ccc1Nc1nccc(-c2cn(C)c3cnccc23)n1
- Growth Rate ([1]; 0 h, replicate number 2): 0.04
- Growth Rate ([1]; 6 h, replicate number 1): -1
- Growth Rate ([2]; 0 h, replicate number 2): -0.71
- Growth Rate ([2]; 24 h, replicate number 1): 0.75
- Growth Rate ([3]; 0 h, replicate number 1): -0.65
- Growth Rate ([3]; 0 h, replicate number 2): -0.69
- Growth Rate ([3]; 24 h, replicate number 2): 0.8

Compound: NC(=O)c1ccc(-c2nc(-c3ccc4c(c3)OCO4)c(-c3ccccn3)[nH]2)cc1.O
- Growth Rate ([1]; 0 h, replicate number 1): -0.21
- Growth Rate ([1]; 6 h, replicate number 1): -0.01
- Growth Rate ([1]; 6 h, replicate number 2): -0.54
- Growth Rate ([1]; 18 h, replicate number 1): -0.48
- Growth Rate ([2]; 0 h, replicate number 1): -0.57
- Growth Rate ([2]; 0 h, replicate number 2): -0.09
- Growth Rate ([2]; 6 h, replicate number 1): 0.96
- Growth Rate ([2]; 12 h, replicate number 1): 0.79
- Growth Rate ([2]; 18 h, replicate number 1): 0.95
- Growth Rate ([2]; 18 h, replicate number 2): 0.79
- Growth Rate ([2]; 24 h, replicate number 1): 0.94
- Growth Rate ([3]; 0 h, replicate number 1): 0.76

Compound: CC(Sc1nc2c(cnn2-c2cccc(Cl)c2)c(=O)[nH]1)C(N)=O (configuration not stated)
- Growth Rate ([1]; 0 h, replicate number 2): -1
- Growth Rate ([1]; 6 h, replicate number 1): 0.44
- Growth Rate ([1]; 18 h, replicate number 1): 0.53
- Growth Rate ([2]; 6 h, replicate number 1): -0.28
- Growth Rate ([2]; 6 h, replicate number 2): 0.38
- Growth Rate ([2]; 12 h, replicate number 1): 0.5
- Growth Rate ([2]; 12 h, replicate number 2): 0.69
- Growth Rate ([2]; 18 h, replicate number 1): 0.85
- Growth Rate ([2]; 18 h, replicate number 2): 0.68
- Growth Rate ([2]; 24 h, replicate number 1): 0.84
- Growth Rate ([2]; 24 h, replicate number 2): 0.85
- Growth Rate ([3]; 0 h, replicate number 1): 1
- Growth Rate ([3]; 0 h, replicate number 2): 0.66
